Experimental data: ChEMBL document CHEMBL1123299, “New antiarrhythmic agents. 2,2,5,5-Tetramethyl-3-pyrroline-3-carboxamides and 2,2,5,5-tetramethylpyrrolidine-3-carboxamindes” (J Med Chem, 1986)

Assays:
Rattus norvegicus [1] = test: Incidence of arrhythmias in rats after a intravenal administration at 4 mg/kg, expressed as no. of positive cases out of no. of tested cases (10); type: functional
[2] = Acute toxicity determined after intravenal administration in mice; type: organism-based; details: mouse, in vivo, iv
Rattus norvegicus [3] = species: Rattus norvegicus; test: Relative potency with reference to quinidine; type: functional
Rattus norvegicus [4] = test: Effective dose against aconitine-induced arrhythmia after intravenal administration in anesthetized rats; type: functional

Structure (SMILES) | No. of positive cases (Rattus norvegicus [1]) | LD50 [2] [mg/kg] | Relative potency (Rattus norvegicus [3]) | ED150 (Rattus norvegicus [4]) [mg/kg]
CC1(C)C=C(C(=O)NCCNC(=O)C2CCCCC2C(=O)O)C(C)(C)N1 (centres undefined) | 0 | 1130 |  | 
CC1(C)C=C(C(=O)NCCNCc2cccs2)C(C)(C)N1 | 3 | 123 |  | 
CC1(C)C=C(C(=O)NCCNC(=O)c2ccc3c(c2)OCO3)C(C)(C)N1 | 2 | 95 |  | 
CC1(C)C=C(C(=O)NCC(O)CNC(=O)C(C)(C)Oc2ccc(Cl)cc2)C(C)(C)N1 (centres undefined) | 0 | 69 |  | 
CC1(C)C=C(C(=O)NCCCNCc2ccncc2)C(C)(C)N1 | 0 | 94 |  | 
CC1(C)C=C(C(=O)NCCCNCc2ccccc2)C(C)(C)N1 | 9 |  | 3.3 | 
CN(Cc1ccccc1)C(=O)C1=CC(C)(C)NC1(C)C | 1 | 51 |  | 
CC1(C)C=C(C(=O)NCCCNC(=O)COc2ccccc2)C(C)(C)N1 | 10 | 49 | 4.6 | 2.6
CC1(C)C=C(C(=O)NCCNC(=O)COc2ccc(Cl)cc2Cl)C(C)(C)N1 | 4 | 37 |  | 
CCc1nc2ccccc2c(=O)n1CCCNC(=O)C1CC(C)(C)NC1(C)C (centres undefined) | 10 |  | 4.4 | 
CC1(C)C=C(C(=O)NCCCNC(=O)Cc2cccs2)C(C)(C)N1 | 8 |  | 3.8 | 
Cc1nc2ccccc2c(=O)n1CCCNC(=O)C1CC(C)(C)NC1(C)C (centres undefined) | 3 | 53 |  | 
CC1(C)C=C(C(=O)NCc2ccccc2)C(C)(C)N1 | 3 | 34 |  | 
CC1(C)C=C(C(=O)NCCCNC(=O)C2CC=CCC2C(=O)O)C(C)(C)N1 (centres undefined) | 0 | 344 |  | 
CCc1nc2ccccc2c(=O)n1CCNC(=O)C1=CC(C)(C)NC1(C)C | 10 |  | 1.1 | 
CC(=O)Nc1ccc(CNCCNC(=O)C2=CC(C)(C)NC2(C)C)cc1 | 2 | 25 |  | 
COc1ccc(CNCCNC(=O)C2=CC(C)(C)NC2(C)C)cc1OC | 2 | 61 |  | 
CC1(C)CC(C(=O)NCCCN2C(=O)c3ccccc3C2=O)C(C)(C)N1 (centres undefined) | 10 |  | 2.6 | 
COc1cc(C(=O)NCCCNC(=O)C2=CC(C)(C)NC2(C)C)cc(OC)c1OC | 5 |  | 0.97 | 
CC1(C)CC(C(=O)NCCCNCc2ccsc2)C(C)(C)N1 (centres undefined) | 7 |  | 0.9 | 
CC1(C)C=C(C(=O)NCCNC(=O)c2cccs2)C(C)(C)N1 | 3 | 93 |  | 
Cc1cccc(C)c1NC(=O)C(C)NCCCNC(=O)C1=CC(C)(C)NC1(C)C (centres undefined) | 10 | 26 | 9.1 | 1.3
CC1(C)C=C(C(=O)NCCCNCc2ccccc2O)C(C)(C)N1 | 7 | 28 | 2.5 | 4.7
C=CCc1ccc(OCC(=O)NCCNC(=O)C2=CC(C)(C)NC2(C)C)c(OC)c1 | 7 | 11 | 1.9 | 6.3
COc1cc(CNCCCNC(=O)C2=CC(C)(C)NC2(C)C)cc(OC)c1OC | 9 | 22 | 3.1 | 3.8
CC1(C)C=C(C(=O)NCCCNC(=O)C(O)c2ccccc2)C(C)(C)N1 (centres undefined) | 1 | 52 |  | 

Structure (SMILES) | No. of positive cases (Rattus norvegicus [1]) | LD50 [2] [mg/kg] | Relative potency (Rattus norvegicus [3]) | ED150 (Rattus norvegicus [4]) [mg/kg]
CC1(C)C=C(C(=O)NCCCNCc2ccc(C(F)(F)F)cc2)C(C)(C)N1 | 7 | 65 | 2.5 | 4.8
CC1(C)C=C(C(=O)NCCCNC(=O)C(C)(C)Oc2ccc(Cl)cc2)C(C)(C)N1 | 0 | 46 |  | 
CC1(C)C=C(C(=O)NCCCCNC(=O)c2cccs2)C(C)(C)N1 | 6 | 37 |  | 
CC1(C)C=C(C(=O)NCCN2C(=O)C3CCCCC3C2=O)C(C)(C)N1 (centres undefined) | 0 | 128 |  | 
Cc1cccc(C)c1NC(=O)C(C)NCCNC(=O)C1=CC(C)(C)NC1(C)C (centres undefined) | 4 | 39 |  | 
Cc1nc2ccccc2c(=O)n1CCCNC(=O)C1=CC(C)(C)NC1(C)C | 10 |  | 2.6 | 
CC1(C)C=C(C(=O)NCCCNC(=O)c2cccs2)C(C)(C)N1 | 4 | 48 |  | 
COc1cc(CNCCNC(=O)C2=CC(C)(C)NC2(C)C)cc(OC)c1OC | 2 | 56 |  | 
CC1(C)C=C(C(=O)NCCNC(=O)C2CC=CCC2C(=O)O)C(C)(C)N1 (centres undefined) | 0 | 1510 |  | 
COc1ccc(CNC(=O)C2=CC(C)(C)NC2(C)C)cc1 | 0 | 66 |  | 
CC1(C)C=C(C(=O)NCCCNC(=O)c2ccc3c(c2)OCO3)C(C)(C)N1 | 4 | 76 |  | 
Cc1nc2ccccc2c(=O)n1CCNC(=O)C1=CC(C)(C)NC1(C)C | 4 |  |  | 
CC1(C)C=C(C(=O)NCCN2C(=O)C3CC=CCC3C2=O)C(C)(C)N1 (centres undefined) | 0 | 182 |  | 
CC1(C)C=C(C(=O)NCCCNCc2ccsc2)C(C)(C)N1 | 9 |  | 2.2 | 
CC1(C)C=C(C(=O)NCCCN2C(=O)C3CCCCC3C2=O)C(C)(C)N1 (centres undefined) | 0 | 106 |  | 
CC1(C)C=C(C(=O)NCCCNC(=O)Cc2ccccc2)C(C)(C)N1 | 6 | 54 |  | 
CC1(C)C=C(C(=O)NCCCNCc2ccco2)C(C)(C)N1 | 0 | 34 |  | 
Cc1nc2ccccc2c(=O)n1CC(O)CNC(=O)C1=CC(C)(C)NC1(C)C (centres undefined) | 4 | 73 |  | 
CC(NCCNC(=O)C1=CC(C)(C)NC1(C)C)c1cccs1 (centres undefined) | 2 | 53 |  | 
CC1(C)C=C(C(=O)NCCCCNCc2cccs2)C(C)(C)N1 | 10 |  | 2.5 | 
COc1ccc(CCNC(=O)C2=CC(C)(C)NC2(C)C)cc1OC | 0 | 123 |  | 
CC1(C)C=C(C(=O)NCCN2C(=O)c3ccccc3C2=O)C(C)(C)N1 | 7 |  | 1.5 | 
C/C=C/c1ccc(OC(C)C(=O)NCCCNC(=O)C2=CC(C)(C)NC2(C)C)c(OC)c1 (centres undefined) | 7 | 14 | 4.4 | 
C/C=C/c1ccc(OCC(=O)NCCNC(=O)C2=CC(C)(C)NC2(C)C)c(OC)c1 | 7 | 18 | 2.9 | 
CC1(C)C=C(C(=O)NCc2ccc(Cl)cc2)C(C)(C)N1 | 0 | 49 |  | 
CC1(C)C=C(C(=O)NC(C(N)=O)c2ccccc2)C(C)(C)N1 (centres undefined) | 2 | 75 |  | 

Structure (SMILES) | No. of positive cases (Rattus norvegicus [1]) | LD50 [2] [mg/kg] | Relative potency (Rattus norvegicus [3]) | ED150 (Rattus norvegicus [4]) [mg/kg]
CC1(C)C=C(C(=O)NCCNC(=O)C(C)(C)Oc2ccc(Cl)cc2)C(C)(C)N1 | 0 | 47 |  | 
CC1(C)C=C(C(=O)NCC(O)CN2C(=O)c3ccccc3C2=O)C(C)(C)N1 (centres undefined) | 10 |  | 3.9 | 
CC1(C)C=C(C(=O)NCc2ccncc2)C(C)(C)N1 | 0 | 132 |  | 
CC1(C)C=C(C(=O)NC(c2ccccc2)c2ccccc2)C(C)(C)N1 | 5 | 63 |  | 
C=CCc1ccc(OCC(=O)NCCCNC(=O)C2CC(C)(C)NC2(C)C)c(OC)c1 (centres undefined) | 0 | 38 |  | 
CC(CNC(=O)C1=CC(C)(C)NC1(C)C)NCc1cccs1 (centres undefined) | 4 | 68 |  | 
CC1(C)CC(C(=O)NCCCNCc2cccs2)C(C)(C)N1 (centres undefined) | 10 |  | 2.8 | 
CC(=O)Nc1ccc(CNCCCNC(=O)C2=CC(C)(C)NC2(C)C)cc1 | 2 | 23 |  | 
CC1(C)CC(C(=O)NCCCNCc2ccc(C(F)(F)F)cc2)C(C)(C)N1 (centres undefined) | 9 |  | 4.1 | 
CC1(C)C=C(C(=O)NCCNC(=O)C(O)c2ccccc2)C(C)(C)N1 (centres undefined) | 0 | 85 |  | 
CC1(C)C=C(C(=O)NCCCN2C(=O)C3CC=CCC3C2=O)C(C)(C)N1 (centres undefined) | 2 |  |  | 
CC1(C)C=C(C(=O)NCCCNCc2cccc(O)c2)C(C)(C)N1 | 4 | 17 |  | 
Cc1cc(Cl)ccc1OCC(=O)NCCCNC(=O)C1=CC(C)(C)NC1(C)C | 3 | 30 |  | 
CC1(C)C=C(C(=O)NCCNC(=O)Cc2cccs2)C(C)(C)N1 | 2 | 86 |  | 
CC1(C)C=C(C(=O)NCCCNC(=O)c2ccccc2C(=O)O)C(C)(C)N1 | 0 |  |  | 
CC1(C)C=C(C(=O)NCCNC(=O)c2ccccn2)C(C)(C)N1 | 2 | 88 |  | 
CC1(C)C=C(C(=O)NCCCNC(=O)C2CCCCC2C(=O)O)C(C)(C)N1 (centres undefined) | 0 | 753 |  | 
CC1(C)C=C(C(=O)NCCCNCc2ccccn2)C(C)(C)N1 | 0 | 102 |  | 
Cc1cc(Cl)ccc1OCC(=O)NCCNC(=O)C1=CC(C)(C)NC1(C)C | 2 | 36 |  | 
CC1(C)C=C(C(=O)NCCCNC(=O)CSc2ccccc2)C(C)(C)N1 | 7 |  | 1.7 | 6.9
CC1(C)C=C(C(=O)NCCNC(=O)c2ccccc2C(=O)O)C(C)(C)N1 | 0 | 357 |  | 
CC1(C)C=C(C(=O)NCCCNCc2ccc[nH]2)C(C)(C)N1 | 4 | 20 |  | 
CC1(C)C=C(C(=O)NCCCNC(=O)COc2ccc(Cl)cc2Cl)C(C)(C)N1 | 5 | 20 |  | 
CC1(C)C=C(C(=O)NCC(C)(C)NCc2cccs2)C(C)(C)N1 | 1 | 49 |  | 
